Source: patent US10828317B2, “Method of treating bacterial infections” (priority 2016, dated 2020)
Like-named read-outs stand apart in the source and are kept apart here.

How the values were obtained:
A. baumannii EN016 = assay: MIC, WT; assay type: cell-based, Acinetobacter baumannii; details: Acinetobacter baumannii, EN016, combination didanosine+trimethoprim+uridine, Table 10; read-out: MIC
E. aerogenes EN0461 = assay: MIC; assay type: cell-based, Enterobacter aerogenes; details: Klebsiella aerogenes, EN0461, combination didanosine+trimethoprim+uridine, Table 10; read-out: MIC
K. oxytoca EN0392 = assay: MIC; assay type: cell-based; details: Klebsiella oxytoca, EN0392, combination didanosine+trimethoprim+uridine, Table 10
P. aeruginosa EN0422 = assay: MIC; assay type: cell-based, Pseudomonas aeruginosa; details: Pseudomonas aeruginosa, EN0422, combination didanosine+trimethoprim+uridine, Table 10; read-out: MIC
P. mirabilis ST19 EN0445 = assay: MIC; assay type: cell-based, Proteus mirabilis; details: Proteus mirabilis, ST19EN0445, combination didanosine+trimethoprim+uridine, Table 10; read-out: MIC
E. coli EN012 = assay: MIC, WT; assay type: cell-based, Escherichia coli; details: Escherichia coli, EN012, combination didanosine+trimethoprim+uridine, Table 10; read-out: MIC
P. aeruginosa EN0459 = assay: MIC; assay type: cell-based, Pseudomonas aeruginosa; details: Pseudomonas aeruginosa, EN0459, combination didanosine+trimethoprim+uridine, Table 10; read-out: MIC
E. coli EN0235 = assay: microbe, parasite or virus in culture; assay type: cell-based; details: Escherichia coli, EN0235, combination didanosine+trimethoprim+uridine, Table 20
K. pneumoniae EN006 = assay: MIC, WT (EN006 = EN0006, ATCC 13883); assay type: cell-based, Klebsiella pneumoniae
Citrobacter sp. EN0465 = assay: MIC; assay type: cell-based; details: Citrobacter, SP.EN0465, combination didanosine+trimethoprim+uridine, Table 10; read-out: MIC
E. coli EN001 = assay: MIC, WT (EN001 = EN0001, ATCC 25922); assay type: cell-based, Escherichia coli; details: combination didanosine+trimethoprim+uridine, Table 20
P. aeruginosa EN0460 = assay: MIC; assay type: cell-based, Pseudomonas aeruginosa; details: Pseudomonas aeruginosa, EN0460, combination didanosine+trimethoprim+uridine, Table 10; read-out: MIC
A. baumannii EN007 = assay: MIC, WT (EN007 = EN0007); assay type: cell-based, Acinetobacter baumannii
P. aeruginosa EN004 = assay: MIC, WT (EN004 = EN0004); assay type: cell-based, Pseudomonas aeruginosa
E. coli EN0136 = assay: MIC, ESBL (CTX-M-2); assay type: cell-based; details: Escherichia coli, EN0136, combination didanosine+trimethoprim+uridine, Table 20; read-out: MIC
S. aureus EN008 = assay: MIC, Gram-positive control; assay type: cell-based, Staphylococcus aureus; details: Staphylococcus aureus, EN008, combination didanosine+trimethoprim+uridine, Table 10; read-out: MIC
S. typhimurium EN0466 = assay: MIC; assay type: cell-based; details: Salmonella enterica, combination didanosine+trimethoprim+uridine, Table 10
[1] = tested on: A. pittii or A. nosocomialis EN0180; assay: MIC; assay type: cell-based, Acinetobacter pittii or nosocomialis; details: combination didanosine+trimethoprim+uridine, Table 10; read-out: MIC
P. aeruginosa EN014 = assay: MIC, WT; assay type: cell-based, Pseudomonas aeruginosa; details: Pseudomonas aeruginosa, EN014, combination didanosine+trimethoprim+uridine, Table 10; read-out: MIC
S. epidermidis EN0456 = assay: MIC; assay type: cell-based, Staphylococcus epidermidis; details: Staphylococcus epidermidis, EN0456, combination didanosine+trimethoprim+uridine, Table 10; read-out: MIC
K. pneumoniae EN0463 = assay: MIC; assay type: cell-based, Klebsiella pneumoniae; details: Klebsiella pneumoniae, EN0463, combination didanosine+trimethoprim+uridine, Table 10; read-out: MIC
S. aureus V321 = assay: MIC; assay type: cell-based; details: Staphylococcus aureus, Mupirocin resistant isolate, read-out: MIC (resistance pattern)
S. aureus V308 = assay: MIC; assay type: cell-based; details: Staphylococcus aureus, V308; Mupirocin resistant isolate; read-out: MIC (resistance pattern)
S. aureus V86 = assay: MIC; assay type: cell-based; details: Staphylococcus aureus, V86; Mupirocin resistant isolate; read-out: MIC (resistance pattern)
S. aureus V55 = assay: MIC; assay type: cell-based; details: Staphylococcus aureus, Mupirocin resistant isolate, read-out: MIC (resistance pattern)
[2] = combination didanosine+trimethoprim+uridine, Table 20

## O=c1[nH]cnc2c1ncn2[C@H]1CC[C@@H](CO)O1 [Didanosine, didanosine]
A. baumannii EN016
  MIC: > 4 µg/mL
E. aerogenes EN0461
  MIC: 0.5 µg/mL
K. oxytoca EN0392
  MIC: 0.25 µg/mL
P. aeruginosa EN0422
  MIC: > 4 µg/mL
P. mirabilis ST19 EN0445
  MIC: 1 µg/mL
E. coli EN012
  MIC: 0.064 µg/mL
P. aeruginosa EN0459
  MIC: > 4 µg/mL
E. coli EN0235
  MIC: 0.125 µg/mL
K. pneumoniae EN006; Klebsiella pneumoniae, EN006, combination didanosine+trimethoprim+uridine, Table 10, read-out: MIC
  MIC: 0.5 µg/mL
K. pneumoniae EN006; [2]
  MIC: 0.5 µg/mL
Citrobacter sp. EN0465
  MIC: > 4 µg/mL
E. coli EN001
  MIC: 0.25 µg/mL
P. aeruginosa EN0460
  MIC: > 4 µg/mL
A. baumannii EN007; Acinetobacter baumannii, EN007, combination didanosine+trimethoprim+uridine, Table 10, read-out: MIC
  MIC: > 4 µg/mL
A. baumannii EN007; [2]
  MIC: >4 µg/mL
P. aeruginosa EN004; Pseudomonas aeruginosa, EN004, combination didanosine+trimethoprim+uridine, Table 10, read-out: MIC
  MIC: > 4 µg/mL
P. aeruginosa EN004; [2]
  MIC: >4 µg/mL
E. coli EN0136
  MIC: > 4 µg/mL
S. aureus EN008
  MIC: 0.5 µg/mL
S. typhimurium EN0466
  MIC: 0.25 µg/mL
[1]
  MIC: > 4 µg/mL
P. aeruginosa EN014
  MIC: > 4 µg/mL
S. epidermidis EN0456
  MIC: 0.064 µg/mL
K. pneumoniae EN0463
  MIC: 0.25 µg/mL

## C/C(=C\C(=O)OCCCCCCCCC(=O)O)C[C@@H]1OC[C@H](C[C@@H]2O[C@H]2[C@@H](C)[C@H](C)O)[C@@H](O)[C@H]1O [Mupirocin]
S. aureus V321
  MIC: > 256 µg/mL
S. aureus V308
  MIC: > 256 µg/mL
S. aureus V86
  MIC: > 256 µg/mL
S. aureus V55
  MIC: > 256 µg/mL
